# Measurements as given in article PMC5609913, “Structure based design, synthesis and activity studies of small hybrid molecules as HDAC and G9a dual inhibitors” (Oncotarget, 2017).
# Like-named read-outs stand apart in the source and are kept apart here.
# Key:
# [1] = tested on: MDA-MB-231 cells; assay: Cell anti-proliferation / toxicity assay (CCK-8), MDA-MB-231; format: cell-based; details: Homo sapiens, MDA-MB-231, 72 h, CCK-8, read-out: EC50 MDA-MB-231
# Experimental: Initial tests designed around assessing whether a synergistic effect would be observed in real when a combination of G9a inhibitor and HDAC inhibitor used in conjunction.
# Cell anti-proliferation assays were performed to determine the toxicity of these inhibitors. Several cell lines (MDA-MB-231, MCF-7 and A549) were incubated and then treated with varying concentrations of the inhibitors for 72 h, respectively. […] These compounds were further evaluated against the control cell line HEK293 to test their toxicity with a non-cancerous cell line.
# A549, MDA-MB-231, MCF-7 and HEK293 cells were seeded at 8000-10000 cells (100 μl) in white 96-well plates and pre-incubate the plate for 24 h under standard cell culture conditions, respectively. And then the cells were exposed to the different inhibitors with various concentrations for 72 h. Finally, 10 μl of CCK-8 kit solution was added to each well and incubated for 3-4 hours under standard cell culture conditions, and the 96 well plates were measured the absorbance at 450 nm using Perkin–Elmer Wallac Victor ^3V 1420 multi label plate reader (Perkin–Elmer, Wellesley, USA). EC50s were calculated using GraphPad Prizm statistical package with sigmoidal variable slope dose response curve fit.
# [2] = target: T1, Mouse histone methyltransferase G9a (969-1263) (Mus musculus, UniProt Q9Z148); assay: MALDI-TOF methylation study of G9a enzymatic activity (H3 peptide, SAM); format: biochemical
# T1 construct: The 6His-sumo mG9a (969-1263) protein was purified using the following procedure; 6His-sumo (N, cleaved yes); made in house; host or cells: Escherichia coli BL21 (DE3)
# T1 sequence (Q9Z148 969-1263): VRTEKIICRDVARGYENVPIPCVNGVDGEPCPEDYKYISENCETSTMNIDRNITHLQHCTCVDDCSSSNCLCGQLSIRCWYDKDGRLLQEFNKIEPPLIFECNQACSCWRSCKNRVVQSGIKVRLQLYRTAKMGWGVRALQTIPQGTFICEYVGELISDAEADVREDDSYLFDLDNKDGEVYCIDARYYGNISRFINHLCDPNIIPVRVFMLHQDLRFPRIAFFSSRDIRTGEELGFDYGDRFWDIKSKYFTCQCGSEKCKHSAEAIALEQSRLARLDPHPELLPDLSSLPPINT
# Experimental: Figure 3 compounds were synthesized from the commercially available starting material 1. An initial displacement reaction using a primary amine was used to introduce the C4 selective substitution, with the second displacement to introduce the linker at the C2 position following the microwave assisted reaction previously reported. Boc-protected ethylene diamine was treated with compound 2 at 160°C in a microwave for 10 min to yield product 3 with excellent yield. Afterward, the amine 3 was deprotected with TFA/DCM, and the free amine was treated with corresponding monomethyl esters (carbon chain 2-6) in the presence of coupling reagent EDCI and HOBt for about 8 hours to produce mono methyl ester substituted at the C2 position. The ester compounds further treated with hydroxylamine in water to get the corresponding hydroxamic acid derivatives, which were purified using reverse phase flash chromatography to obtain compounds 4-7 and 4a-7a in good yield. Synthesis of compounds in Figure 4 requires the C6 demethoxy core, and this was synthesized according to the reported procedure to yield 10 [45]. […] Compounds with the HDAC pharmacophore at the C4 position (Figure 2B) were synthesized from the starting material 1. […] A parallel synthesis and testing strategy were used in establishing the primary SAR, with the clear rationalization of the structure and activity at each stage we could reduce the synthetic targets. Initially, we evaluated the G9a potential after the introduction of HDAC pharmacophore. A biochemical assay using MALDI-TOF was used to visualize the effects of the synthesized compounds on G9a enzymatic activity, we carried out a biochemical reaction involving target enzyme G9a, methyl donor SAM and substrate H3 peptide at a concentration of 400 nM, 10 μM and 5 μM respectively.
# Mouse histone methyltransferase G9a (969-1263) cDNA was amplified from the cDNA of BALB/c mouse thymus, and the fragment was sub-cloned into a vector with a 6His-sumo tag. The mouse G9a (mG9a) was expressed in Escherichia coli BL21 (DE3) by the addition of 1 mM isopropyl-1-thio-D-galactopyranoside (IPTG) and incubated overnight at 16°C.
# The in vitro inhibition of G9a by the synthesized compounds were measured by MALDI-TOF mass spectrum (Bruker MALDI TOF/TOF Analyzer). 400 nM purified G9a, 5 μM synthesized histone H3 (1-21) and 10 μM non-radioactive S-adenosyl methionine (Sigma) were added in reaction buffer (50 mM HEPES pH 8.0, 5 μg/ml BSA and 0.1% β-Mercaptoethanol) with or without inhibitors (5 μM). The reaction was incubated at room temperature for 30 min, and stopped by TFA. 1 μl of the sample was mixed with CHCA matrix and m/z peaks were obtained at reflection positive mode. The results of mass spectrum were analyzed using the Bruker flex analysis software, a detailed description of data processing is provided as supplementary information (S3).
# […]
# MALDI spectrums were collected using Bruker flex % conversion to product is also C, from this to get the control software and analyzed by flex analysis. After %maximal activity (%MA), C was compared to the % labelling each cluster peaks of H3K9Me0, H3K9Me1 conversion when no inhibitor was used (D). and H3K9Me2 for all of the tested concentrations, area Finally % inhibition was found by subtracting under the cluster (AUC) were extracted by using the same %MA from 100 […]
# flex analysis software. % abundance of each peak was Example: % methylation levels and % inhibition calculated by following formula, when used 5 μM compound 14
# A = % Abundance of (H3K9Me0) = area of A = 13.09
# B = % Abundance of (H3K9Me1) = area of % conversion when no inhibitor was used D = 84.43 H3K9Me1/ (area of H3K9Me0+area of H3K9Me1 + area (average of six measurements) […]
# [3] = tested on: HDAC; assay: Homogeneous cellular histone deacetylase assay, Hela; format: cell-based, human
# Experimental: The enzymatic activity of HDAC was measured in intact cells using the homogeneous cellular assay method. A cell-permeable peptide Boc-K(Ac)-AMC used as the HDAC substrate, after deacetylation it is cleaved by trypsin to release the fluorescent 7-amino-4-methylcoumarin (AMC) and further quantified.
# The manual assay was developed by Thomas's group. […] After 24 h, 9 μl inhibitors with different concentration were added to the HeLa cells and incubation was continued for 3 h under cell culture conditions. After this treatment period, 10 μl of a 2 mM stock solution of the substrate Boc-K(Ac)-AMC was added into the 96 well plates with Hela cells and inhibitors. […] A549 and K562 cell lines used the same method, respectively. IC50s were calculated using GraphPad Prizm statistical package with sigmoidal variable slope dose response curve fit.
# [4] = Supplementary Table 4, >100 = not reached at 100 μM
# [5] = Supplementary Table 1, inhibitor 5 μM, 30 min, average of 3 values
# [6] = Table 6, mean ± SD of triplicates
# [7] = Table 3, Boc-K(Ac)-AMC substrate, intact Hela cells, read-out: Hela IC50
# [8] = Supplementary Table 2, NA = not active up to highest concentration tested (100 μM), >100 = IC50 not reached at 100 μM, read-out: IC50-HDAC Hela
SMILES,"inhibition at 5 µM [2, 5] [%]","IC50 [3, 8] [µM]","EC50 [1, 4] [µM]",further results
"COc1cc2nc(NCCNC(=O)CCCCCCC(=O)NO)nc(NC3CCN(C)CC3)c2cc1OC [Compound 4, N1-(2-((6,7-dimethoxy-4-((1-methylpiperidin-4-yl)amino)quinazolin-2-yl)amino)ethyl)-N8-hydroxyoctanediamide]",27 ± 12.2,–,> 100,–
"COc1cc2nc(NCCNC(=O)CCCC(=O)NO)nc(NC3CCN(C)CC3)c2cc1OC [Compound 7, N1-(2-((6,7-dimethoxy-4-((1-methylpiperidin-4-yl)amino)quinazolin-2-yl)amino)ethyl)-N5-hydroxyglutaramide]",19.6 ± 20.9,–,> 100,–
"COc1ccc2c(NC3CCN(Cc4ccccc4)CC3)nc(NCCNC(=O)CCCCCCC(=O)NO)nc2c1 [Compound 13, N1-(2-((4-((1-benzylpiperidin-4-yl)amino)-7-methoxyquinazolin-2-yl)amino)ethyl)-N8-hydroxyoctanediamide]",24.9 ± 17.4,–,–,"EC50 [1, 6]: 89.3 ± 1.23 µM; IC50 [3, 7]: 15.3 ± 0.79 µM"
"COc1ccc2c(NC3CCN(Cc4ccccc4)CC3)nc(NCCNC(=O)CCCCCC(=O)NO)nc2c1 [Compound 14, N1-(2-((4-((1-benzylpiperidin-4-yl)amino)-7-methoxyquinazolin-2-yl)amino)ethyl)-N7-hydroxyheptanediamide]",29.7 ± 23.3,–,–,"EC50 [1, 6]: 10 ± 1.66 µM; inhibition at 5 µM ([2]; worked example, single spectrum, 5 μM compound): 69.5%; A = % Abundance of (H3K9Me0) ([2]; worked example, 5 μM compound): 13.09%; B = % Abundance of (H3K9Me1) ([2]; worked example, 5 μM compound): 61.18%; C = % Abundance of (H3K9Me2) (% conversion to product) ([2]; worked example, 5 μM compound): 25.72%; activity at 5 µM ([2]; worked example, 5 μM compound, relative to no inhibitor (84.43), read-out: % maximal activity (%MA)): 30.5%; IC50 [3, 7]: 13.8 ± 1.22 µM"
"COc1ccc2c(NC3CCN(Cc4ccccc4)CC3)nc(NCCNC(=O)CCCCC(=O)NO)nc2c1 [Compound 15, N1-(2-((4-((1-benzylpiperidin-4-yl)amino)-7-methoxyquinazolin-2-yl)amino)ethyl)-N6-hydroxyadipamide]",69.1 ± 24.5,> 100,95.2,–
"COc1ccc2c(NC3CCN(Cc4ccccc4)CC3)nc(NCCNC(=O)CCCC(=O)NO)nc2c1 [Compound 16, N1-(2-((4-((1-benzylpiperidin-4-yl)amino)-7-methoxyquinazolin-2-yl)amino)ethyl)-N5-hydroxyglutaramide]",40.3 ± 13.8,> 100,38.1,–
"COc1cc2nc(N3CCCN(C)CC3)nc(NC3CCN(C(=O)CCCCCCC(=O)NO)CC3)c2cc1OC [Compound 19, 8-(4-((6,7-dimethoxy-2-(4-methyl-1,4-diazepan-1-yl)quinazolin-4-yl)amino)piperidin-1-yl)-N-hydroxy-8-oxooctanamide]",10.7 ± 25.9,> 100,> 100,–
"COc1cc2nc(N3CCCN(C)CC3)nc(NC3CCN(C(=O)CCCCCC(=O)NO)CC3)c2cc1OC [Compound 20, 7-(4-((6,7-dimethoxy-2-(4-methyl-1,4-diazepan-1-yl)quinazolin-4-yl)amino)piperidin-1-yl)-N-hydroxy-7-oxoheptanamide]",14.6 ± 15.8,> 100,> 100,–

# The next lines start with results.
"inhibition at 5 µM [2, 5] [%]","IC50 [3, 8] [µM]",SMILES,"EC50 [1, 4] [µM]",further results
11.2 ± 3.68,–,"COc1cc2nc(NCCNC(=O)CCCCCCC(=O)NO)nc(NC3CCN(C(C)C)CC3)c2cc1OC [Compound 4a, N1-hydroxy-N8-(2-((4-((1-isopropylpiperidin-4-yl)amino)-6,7-dimethoxyquinazolin-2-yl)amino)ethyl)octanediamide]",> 100,–
47.5 ± 9.32,–,"COc1cc2nc(NCCNC(=O)CCCCCC(=O)NO)nc(NC3CCN(C(C)C)CC3)c2cc1OC [Compound 5a, N1-hydroxy-N7-(2-((4-((1-isopropylpiperidin-4-yl)amino)-6,7-dimethoxyquinazolin-2-yl)amino)ethyl)heptanediamide]",> 100,–
38 ± 4.99,–,"COc1cc2nc(NCCNC(=O)CCCCCC(=O)NO)nc(NC3CCN(Cc4ccccc4)CC3)c2cc1OC [Compound 5b, N1-(2-((4-((1-benzylpiperidin-4-yl)amino)-6,7-dimethoxyquinazolin-2-yl)amino)ethyl)-N7-hydroxyheptanediamide]",12.3 ± 3.27,"HDAC inhibition (in words) ([3]; candidates tested in both Hela and K562 cell lines, compared with Compound 14): did not show decent inhibition of HDAC"
15 ± 15.7,–,"COc1cc2nc(NCCNC(=O)CCCC(=O)NO)nc(NC3CCN(C(C)C)CC3)c2cc1OC [Compound 7a, N1-hydroxy-N5-(2-((4-((1-isopropylpiperidin-4-yl)amino)-6,7-dimethoxyquinazolin-2-yl)amino)ethyl)glutaramide]",> 100,–
47.9 ± 12.9,> 100,"COc1ccc2c(NC3CCN(C)CC3)nc(NCCNC(=O)CCCCC(=O)NO)nc2c1 [Compound 15a, N1-hydroxy-N6-(2-((7-methoxy-4-((1-methylpiperidin-4-yl)amino)quinazolin-2-yl)amino)ethyl)adipamide]",77.6,–
40.3 ± 13.8,> 100,"COc1ccc2c(NC3CCN(C)CC3)nc(NCCNC(=O)CCCC(=O)NO)nc2c1 [Compound 16a, N1-hydroxy-N5-(2-((7-methoxy-4-((1-methylpiperidin-4-yl)amino)quinazolin-2-yl)amino)ethyl)glutaramide]",90.5,–
